Measured values taken from patent US10556865B2, “Synergistic herbicidal composition containing certain pyridine or pyrimidine carboxylic acids and certain cereal and rice herbicides” (Dow AgroSciences, LLC, priority 2007, dated 2020).
Values joined by “and” are separate entries in the source; they are usually repeats but may differ in a detail not shown here. Identical values can stand only once.

Key:
Type in all cases: in vivo
[1] = test system: Ipomoea hederacea (L.) JACQ. (IPOHE); experiment: Postemergence herbicidal mixtures for weed control in direct seeded rice (greenhouse, visual % injury after 3 weeks)
[2] = test system: Polygonum pensylvanicum L. (POLPY); experiment: Postemergence herbicidal mixtures for weed control in direct seeded rice (greenhouse, visual % injury)
[3] = test system: Polygonum persicaria L. (POLPE); experiment: as above
[4] = test system: Leptochloa chinensis (L.) NEES (LEFCH); experiment: as above
[5] = test system: Cyperus esculentus L. (CYPES); experiment: as above
Cyperus iria L. (CYPIR) = experiment: as above
[6] = test system: Echinochloa species (ECHSS); experiment: Herbicidal mixtures for weed control in transplanted paddy rice (in-water application, visual % injury after 3 weeks)
Protocol: (§1) Weed seeds or nutlets of the desired test plant species were planted in puddled soil (mud) prepared by mixing a non-sterilized mineral soil (28 percent silt, 18 percent clay, and 54 percent sand, with a pH of about 7.3 to 7.8 and an organic matter content of about 1.0 percent) and water at a ratio of 100 kilograms (kg) of soil to 19 L of water. The prepared mud was dispensed in 250 mL aliquots into 480 mL non-perforated plastic pots with a surface area of 91.6 square centimeters leaving a headspace of 3 centimeters in each pot. Rice seeds were planted in Sun Gro MetroMix® 306 planting mixture, which typically has a pH of 6.0 to 6.8 and an organic matter content of about 30 percent, in plastic plug trays. Seedlings at the second or third leaf stage of growth were transplanted into 650 mL of mud contained in 960 mL non-perforated plastic pots with a surface area of 91.6 cm^2 4 days prior to herbicide application. The paddy was created by filling the 3 centimeter headspace of the pots with water. When required to ensure good germination and healthy plants, a fungicide treatment and/or other chemical or physical treatment was applied. The plants were grown for 4-14 days in a greenhouse with an approximate 14 hr photoperiod which was maintained at about 29° C. during the day and 26° C. during the night. Nutrients were added as Osmocote (17:6:10, N:P:K+minor nutrients) at 2 g per cup. Water was added on a regular basis to maintain the paddy flood, and supplemental lighting was provided with overhead metal halide 1000-Watt lamps as necessary. The plants were employed for testing when they reached the second or third true leaf stage.
(§2) Treatments consisted of esters or salts of compound A, compound C, or compound D and various herbicidal components alone and in combination. For technical grade compounds, a weighed amount, determined by the highest rate to be tested, was placed in an individual 120 mL glass vial and was dissolved in 20 mL of acetone to obtain concentrated stock solutions. […] The concentrated stock solutions obtained were diluted with 20 mL of an aqueous mixture containing 2.5% Agri-dex crop oil concentrate (v/v). For formulated compounds, a measured amount, determined by the highest rate to be tested, was placed in an individual 120 mL glass vial and was dissolved in 20 mL of 2.5% (v/v) Agri-dex crop oil concentrate to obtain concentrated stock solutions. The concentrated stock solutions obtained were diluted with 20 mL of acetone. Applications were made by injecting an appropriate amount of the stock solution into the aqueous layer of the paddy. Control plants were treated in the same manner with the solvent blank. All treated plant material received the same concentration of acetone and crop oil concentrate.
(§3) Forms of compounds A, C, and D were applied on an acid equivalent basis. Other herbicidal components were applied on an active ingredient basis and included acetolactate synthase (ALS)-inhibiting herbicides penoxsulam (triazolopyrimidine chemical class) applied as Grasp SC, […] (sulfonylurea chemical class) applied as Sirius G, and bensulfuron-methyl (sulfonylurea chemical class) applied as Londax; acetyl CoA carboxylase (ACCase) inhibiting herbicides cyhalofop-butyl applied as Clincher G and fenoxaprop-p-ethyl applied as Ricestar HT; auxinic herbicide quinclorac applied as Facet 75 DF; phytoene desaturase inhibiting herbicide norflurazon; and p-hydroxyphenylpyruvate dioxygenase (HPPD) inhibiting herbicide sulcotrione applied as Mikado.
(§4) The treated plants and control plants were placed in a greenhouse as described above and water was added as needed to maintain a paddy flood. After 3 weeks the condition of the test plants as compared with that of the untreated plants was determined visually and scored on a scale of 0 to 100 percent where 0 corresponds to no injury and 100 corresponds to complete kill.

[7] = test system: Leptochloa chinensis (L.) NEES (LEFCH); experiment: Herbicidal mixtures for weed control in transplanted paddy rice (in-water application, visual % injury)
Protocol: as §1, §2, §3, §4

Cyperus species (CYPSS) = experiment: as above
Protocol: as §1, §2, §3, §4

[8] = test system: Eleocharis kuroguwai OHWI (ELOKU); experiment: as above
Protocol: as §1, §2, §3, §4

[9] = test system: Scirpus maritimus L. (SCPMA); experiment: Postemergence herbicidal mixtures for weed control in direct seeded rice (greenhouse, visual % injury)
[10] = test system: Ischaemum rugosum SALISB. (ISCRU); experiment: as above
[11] = test system: Fimbristylis miliacea (L.) VAHL (FIMMI); experiment: Herbicidal mixtures for weed control in transplanted paddy rice (in-water application, visual % injury)
Protocol: as §1, with “When required to ensure good germination and healthy plants, a fungicide treatment and/or other chemical or physical treatment was applied.” left out
as §2, §3, §4

COC(=O)c1nc(-c2ccc(Cl)c(OC)c2Cl)cc(N)c1Cl [Compound C Methyl]
% Injury IPOHE Ob ([1]; alone 4.38 g/ha): 40% | % Injury IPOHE Ob ([1]; alone 17.5 g/ha): 50% and 40% | % Injury IPOHE Ob ([1]; alone 70 g/ha): 85% | % Injury POLPY Ob ([2]; alone 8.75 g/ha): 10% | % Injury POLPY Ob ([2]; alone 17.5 g/ha): 15% | % Injury POLPE Ob ([3]; alone 35 g/ha): 85% | % Injury POLPE Ob ([3]; alone 70 g/ha): 100% | % Injury LEFCH Ob ([4]; alone 4.38 g/ha): 0% | % Injury CYPES Ob ([5]; alone 17.5 g/ha): 65% and 100% | % Injury CYPIR Ob (Cyperus iria L. (CYPIR); alone 8.75 g/ha): 25% | % Injury CYPIR Ob (Cyperus iria L. (CYPIR); alone 35 g/ha): 40% | % Injury Ob ([6]; ECHCG, 4.38 g/ha alone): 0% | % Injury Ob ([6]; ECHCG, 8.75 g/ha alone): 0% | % Injury Ob ([6]; ECHCG, 17.5 g/ha alone): 0% | % Injury Ob ([6]; ECHCG, 35 g/ha alone): 10% | % Injury Ob ([7]; 17.5 g/ha alone): 0% | % Injury Ob ([7]; 35 g/ha alone): 0% | % Injury Ob ([7]; 70 g/ha alone): 0%

CCOC(=O)C(Cl)Cc1cc(-n2nc(C)n(C(F)F)c2=O)c(F)cc1Cl (stereo not drawn) [Carfentrazone-ethyl]
% Injury POLPE Ob ([3]; alone 14 g/ha): 0% | % Injury 11 DAA CYPES Ob ([5]; alone 14 g/ha): 10% | % Injury 11 DAA CYPES Ob ([5]; alone 28 g/ha): 10% | % Injury 21 DAA CYPES Ob ([5]; alone 14 g/ha): 0% | % Injury 21 DAA CYPES Ob ([5]; alone 28 g/ha): 0% | % Injury CYPES Ob ([5]; alone 56 g/ha): 10% | % Injury CYPES Ob ([5]; alone 112 g/ha): 0% | % Injury CYPIR Ob (Cyperus iria L. (CYPIR); alone 14 g/ha): 0% | % Injury CYPIR Ob (Cyperus iria L. (CYPIR); alone 28 g/ha): 0%

COc1cnc(OC)n2nc(NS(=O)(=O)c3c(OCC(F)F)cccc3C(F)(F)F)nc12 [Penoxsulam]
% Injury IPOHE Ob ([1]; alone 4.38 g/ha): 70% | % Injury IPOHE Ob ([1]; alone 8.75 g/ha): 60% | % Injury LEFCH Ob ([4]; alone 17.5 g/ha): 0% | % Injury LEFCH Ob ([4]; alone 35 g/ha): 0% | % Injury CYPES Ob ([5]; alone 17.5 g/ha): 10% | % Injury Ob ([6]; ECHCG, 4.38 g/ha alone): 70% | % Injury Ob (Cyperus species (CYPSS); CYPES, 8.75 g/ha alone): 40% | % Injury Ob (Cyperus species (CYPSS); CYPIR, 8.75 g/ha alone): 70% | % Injury Ob ([8]; 8.75 g/ha alone): 0% | % Injury Obs ([8]; 8.75 g/ha alone): 0% | % Injury Ob ([7]; 8.75 g/ha alone): 0% | % Injury Ob ([7]; 17.5 g/ha alone): 15% | % Injury Ob ([7]; 35 g/ha alone): 20%

CCC(=O)Nc1ccc(Cl)c(Cl)c1 [Propanil]
% Injury IPOHE Ob ([1]; alone 560 g/ha): 10% | % Injury IPOHE Ob ([1]; alone 1120 g/ha): 10% | % Injury POLPE Ob ([3]; alone 560 g/ha): 10% | % Injury POLPE Ob ([3]; alone 1120 g/ha): 40% | % Injury at 11 DAA CYPIR Ob (Cyperus iria L. (CYPIR); alone 560 g/ha): 10% | % Injury at 11 DAA CYPIR Ob (Cyperus iria L. (CYPIR); alone 1120 g/ha): 10% | % Injury at 21 DAA CYPIR Ob (Cyperus iria L. (CYPIR); alone 560 g/ha): 0% | % Injury at 21 DAA CYPIR Ob (Cyperus iria L. (CYPIR); alone 1120 g/ha): 0% | % Injury at 11 DAA SCPMA Ob ([9]; alone 560 g/ha): 30% | % Injury at 11 DAA SCPMA Ob ([9]; alone 1120 g/ha): 30% | % Injury at 21 DAA SCPMA Ob ([9]; alone 560 g/ha): 0% | % Injury at 21 DAA SCPMA Ob ([9]; alone 1120 g/ha): 0%

CCCCOC(=O)c1nc(-c2ccc(Cl)c(OC)c2F)cc(N)c1Cl [Compound A n-Butyl]
% Injury IPOHE Ob ([1]; alone 8.75 g/ha): 35% | % Injury IPOHE Ob ([1]; alone 17.5 g/ha): 30% | % Injury POLPY Ob ([2]; alone 8.75 g/ha): 40% | % Injury POLPY Ob ([2]; alone 17.5 g/ha): 90% | % Injury POLPE Ob ([3]; alone 4.38 g/ha): 40% | % Injury POLPE Ob ([3]; alone 8.75 g/ha): 60% | % Injury ISCRU Ob ([10]; alone 35 g/ha): 20% | % Injury ISCRU Ob ([10]; alone 70 g/ha): 50% | % Injury LEFCH Ob ([4]; alone 8.75 g/ha): 10% | % Injury LEFCH Ob ([4]; alone 17.5 g/ha): 30% | % Injury LEFCH Ob ([4]; alone 35 g/ha): 60% | % Injury 11 DAA CYPES Ob ([5]; alone 35 g/ha): 50% | % Injury 11 DAA CYPES Ob ([5]; alone 70 g/ha): 75% | % Injury 21 DAA CYPES Ob ([5]; alone 35 g/ha): 90% | % Injury 21 DAA CYPES Ob ([5]; alone 70 g/ha): 100% | % Injury CYPES Ob ([5]; alone 8.75 g/ha): 50% | % Injury CYPES Ob ([5]; alone 17.5 g/ha): 85% and 90% | % Injury at 11 DAA CYPIR Ob (Cyperus iria L. (CYPIR); alone 35 g/ha): 60% | % Injury at 11 DAA CYPIR Ob (Cyperus iria L. (CYPIR); alone 70 g/ha): 90% | % Injury at 21 DAA CYPIR Ob (Cyperus iria L. (CYPIR); alone 35 g/ha): 60% | % Injury at 21 DAA CYPIR Ob (Cyperus iria L. (CYPIR); alone 70 g/ha): 100% | % Injury at 11 DAA SCPMA Ob ([9]; alone 35 g/ha): 30% | % Injury at 11 DAA SCPMA Ob ([9]; alone 70 g/ha): 100% | % Injury at 21 DAA SCPMA Ob ([9]; alone 35 g/ha): 50% | % Injury at 21 DAA SCPMA Ob ([9]; alone 70 g/ha): 100%

COC(=O)c1ccccc1CS(=O)(=O)NC(=O)Nc1nc(OC)cc(OC)n1 [Bensulfuron-methyl]
% Injury LEFCH Ob ([4]; alone 4.38 g/ha): 20% | % Injury LEFCH Ob ([4]; alone 8.75 g/ha): 0% | % Injury Ob ([6]; ECHCG, 70 g/ha alone): 45% and 70% | % Injury Ob ([6]; ECHCO, 35 g/ha alone): 20% | % Injury Ob ([6]; ECHCO, 70 g/ha alone): 30% | % Injury Ob (Cyperus species (CYPSS); CYPES, 4.38 g/ha alone): 40% | % Injury Ob (Cyperus species (CYPSS); CYPES, 8.75 g/ha alone): 50% | % Injury Ob ([8]; 35 g/ha alone): 20% | % Injury Ob ([8]; 70 g/ha alone): 70% | % Injury Ob ([7]; 35 g/ha alone): 15% | % Injury Ob ([7]; 70 g/ha alone): 30% | % Injury Ob ([11]; 35 g/ha alone): 10% | % Injury Ob ([11]; 70 g/ha alone): 50%
